± gives the expanded uncertainty stated by the source.
Key:
[1] = refractive index (Na D-line) (dimensionless); settings: 298.15 K; 101.33 kPa; Liquid; Standard Abbe refractometry
[2] = 298.15 K; 101.33 kPa; Liquid

| Structure (SMILES) | refractive index [1] | mass density [2] |
| --- | --- | --- |
| CC(=O)N(C)C [N,N-dimethylethanamide] | 1.4362 ± 0.0007 | 936.44 ± 0.13 kg/m3 |
| C[S+](C)[O-] [dimethyl sulfoxide] | 1.4771 ± 0.0007 | 1095.66 ± 0.15 kg/m3 |
| CNC=O [N-methylformamide] | 1.4303 ± 0.0007 | 998.97 ± 0.39 kg/m3 |
| CC(C)=O [acetone] | 1.3564 ± 0.0007 | 784.59 ± 0.24 kg/m3 |

Next, values leading:

| refractive index [1] | mass density [2] | Structure (SMILES) |
| --- | --- | --- |
| 1.4463 ± 0.0007 | 1129.11 ± 0.4 kg/m3 | NC=O [formamide] |
| 1.4279 ± 0.0007 | 943.87 ± 0.26 kg/m3 | CN(C)C=O [dimethylformamide] |

From the NIST ThermoML archive (doi:10.1016/j.jct.2008.05.010)
